According to paper PMC4730251, “Cloning, Characterization and Expression Pattern Analysis of a Cytosolic Copper/Zinc Superoxide Dismutase (SaCSD1) in a Highly Salt Tolerant Mangrove (Sonneratia alba)” (International Journal of Molecular Sciences, 2015):

Target: T1, SaCSD1 (Sonneratia alba, UniProt A0A0U1X631)
T1 construct: gene SOD1
T1 sequence (A0A0U1X631 1-152): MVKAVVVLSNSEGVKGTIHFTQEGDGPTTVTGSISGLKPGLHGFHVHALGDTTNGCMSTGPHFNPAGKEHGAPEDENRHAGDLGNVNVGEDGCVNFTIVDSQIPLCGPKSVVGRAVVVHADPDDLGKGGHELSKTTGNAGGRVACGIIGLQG
Assay: SOD activity assay kit (WST-1 method)
Assay type: biochemical

[O]O [superoxide]
SOD activity assay kit (WST-1 method): Superoxide dismutase activity assay kit (WST-1 method) was used to detect the SOD activity
